Columns and labels:
Assay in all cases: relative viability (nuclei count vs DMSO), 5 days (fraction); higher = more cells survive
Zebularine + Tozasertib = compound: O=c1ncccn1[C@@H]1O[C@H](CO)[C@@H](O)[C@H]1O [Zebularine] + Cc1cc(Nc2cc(N3CCN(C)CC3)nc(Sc3ccc(NC(=O)C4CC4)cc3)n2)n[nH]1 [Tozasertib] (partner 0.1 µM)
How it was run: (§1)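 Lung cancer cell lines were pin-tool dosed in 1536-well plates on the day after seeding, with either a lone drug or a fixed anchor-drug dose plus five library-drug doses (not always all listed) in √10 steps. Nuclei were counted on 4× images after 5 days. Relative viability is the ratio of treated-well to vehicle-well nuclei counts, with each value a median of duplicate plates.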

Zebularine + Olaparib = compound: O=c1ncccn1[C@@H]1O[C@H](CO)[C@@H](O)[C@H]1O [Zebularine] + O=C(c1cc(Cc2n[nH]c(=O)c3ccccc23)ccc1F)N1CCN(C(=O)C2CC2)CC1 [Olaparib] (partner 8 µM)
How it was run: as §1

BI-D1870 + Lapatinib = compound: CC(C)CCN1c2nc(Nc3cc(F)c(O)c(F)c3)ncc2N(C)C(=O)C1C [BI-D1870] + CS(=O)(=O)CCNCc1ccc(-c2ccc3ncnc(Nc4ccc(OCc5cccc(F)c5)c(Cl)c4)c3c2)o1 [Lapatinib] (partner 2 µM)
How it was run: as §1

Zebularine + Alpelisib = compound: O=c1ncccn1[C@@H]1O[C@H](CO)[C@@H](O)[C@H]1O [Zebularine] + Cc1nc(NC(=O)N2CCC[C@H]2C(N)=O)sc1-c1ccnc(C(C)(C)C(F)(F)F)c1 [Alpelisib] (partner 2 µM)
How it was run: as §1

Cell Line	relative viability (Zebularine + Tozasertib; first compound 1 µM)	relative viability (Zebularine + Tozasertib; first compound 3.162 µM)	relative viability (Zebularine + Tozasertib; first compound 10 µM)	relative viability (Zebularine + Tozasertib; first compound 31.62 µM)	relative viability (Zebularine + Tozasertib; first compound 100 µM)	relative viability (Zebularine + Olaparib; first compound 1 µM)	relative viability (Zebularine + Olaparib; first compound 3.162 µM)	relative viability (Zebularine + Olaparib; first compound 10 µM)	relative viability (Zebularine + Olaparib; first compound 31.62 µM)	relative viability (Zebularine + Olaparib; first compound 100 µM)	relative viability (BI-D1870 + Lapatinib; first compound 0.04 µM)	relative viability (BI-D1870 + Lapatinib; first compound 0.1265 µM)	relative viability (BI-D1870 + Lapatinib; first compound 0.4 µM)	relative viability (BI-D1870 + Lapatinib; first compound 1.265 µM)	relative viability (BI-D1870 + Lapatinib; first compound 4 µM)	relative viability (Zebularine + Alpelisib; first compound 1 µM)	relative viability (Zebularine + Alpelisib; first compound 3.162 µM)	relative viability (Zebularine + Alpelisib; first compound 10 µM)	relative viability (Zebularine + Alpelisib; first compound 31.62 µM)	relative viability (Zebularine + Alpelisib; first compound 100 µM)
HCC-827	0.417	0.445	0.306	0.373	0.196	0.752	0.607	0.487	0.415	0.252	0.224	0.179	0.194	0.172	0.231	1.02	1.11	0.84	0.673	0.305
HOP-62	0.503	0.396	0.212	0.154	0.167	0.169	0.35	0.257	0.163	0.16	1.07	1.08	0.934	1.06	0.825	0.932	0.64	0.603	0.22	0.127
LC-2-ad	0.413	0.427	0.347	0.422	0.396	0.729	0.681	0.434	0.201	0.254	1.04	0.932	0.975	1.08	0.971	1.03	0.865	0.539	0.491	0.135
LCLC-97TM1	0.253	0.225	0.191	0.102	0.115	0.404	0.289	0.138	0.104	0.119	1.35	0.988	0.622	1.3	0.916	0.23	0.224	0.193	0.12	0.112
LK-2	0.179	0.188	0.171	0.178	0.166	0.884	0.714	0.335	0.259	0.221	1.01	0.888	0.985	1.04	0.977	1.15	1.29	0.541	0.665	0.407
LOU-NH91	0.7	0.641	0.68	0.704	0.384	0.906	0.891	0.704	0.775	0.469	0.837	0.717	0.782	0.837	0.677	0.703	0.719	0.686	0.693	0.56
LU99A	0.296	0.276	0.239	0.261	0.159	0.306	0.243	0.245	0.182	0.135	1.11	0.942	0.928	0.941	0.939	0.58	0.506	0.451	0.292	0.152
LXF-289	0.19	0.169	0.124	0.0978	0.116	1.06	0.995	0.549	0.31	0.275	0.927	0.831	0.881	0.87	0.788	1.08	1.06	0.827	0.811	0.329
NCI-H23	0.36	0.382	0.234	0.462	0.284	0.318	0.132	–	0.276	0.258	1.41	0.984	1.04	1.31	0.664	0.577	0.709	–	0.775	0.563
NCI-H322M	0.494	0.486	0.372	0.47	0.465	0.544	0.673	0.597	0.581	0.555	0.605	0.535	0.598	0.529	0.559	0.732	0.756	0.772	0.673	0.676
NCI-H358	0.111	0.101	0.0883	0.108	0.0887	0.67	0.597	0.343	0.295	0.225	0.501	0.413	0.551	0.504	0.556	0.888	0.786	0.578	0.495	0.266
NCI-H460	0.61	0.499	0.529	0.193	0.0561	0.433	0.405	0.22	0.162	0.133	1.28	0.823	0.941	0.837	0.586	0.519	0.679	0.217	0.215	0.115
NCI-H520	0.43	0.561	0.353	0.269	0.25	0.337	0.299	0.319	0.243	0.192	1	0.714	0.846	0.619	0.704	1.1	0.835	0.429	0.375	0.275
NCI-H596	0.847	1.1	0.618	0.958	0.845	0.7	0.746	0.713	0.591	0.547	1.05	1.03	1.19	1.09	1.05	0.476	0.462	0.427	0.566	0.483
NCI-H647	0.284	0.353	0.152	0.144	0.265	0.506	0.291	0.171	0.15	0.165	1.26	0.927	1.02	1.03	0.671	1.05	0.932	0.422	0.246	0.167
NCI-H650	0.756	0.656	0.524	0.346	0.238	0.351	0.332	0.307	0.28	0.177	1.04	0.726	0.836	0.975	0.879	1.04	1.2	0.894	0.462	0.319
NCI-H661	0.338	0.346	0.381	0.361	0.396	0.856	0.708	0.56	0.943	0.688	0.56	0.406	0.45	0.442	0.499	0.653	0.498	0.333	0.737	0.603
NCI-H727	0.639	0.645	0.602	0.623	0.386	0.728	0.886	0.732	0.68	0.775	1.15	0.819	0.786	1.18	0.673	–	0.531	0.564	0.665	0.485
NCI-H838	0.251	0.304	0.239	0.216	0.163	0.856	0.798	0.546	0.38	0.266	1.13	0.942	1.1	1.24	1.02	1.04	1.05	0.707	0.857	0.404
NCI-H1355	0.56	0.516	0.484	0.328	0.34	0.625	0.426	0.375	0.28	0.272	0.955	0.959	0.907	1.21	0.809	0.856	0.798	0.728	0.635	0.385
NCI-H1395	0.72	0.707	0.647	0.501	0.479	0.465	0.47	0.558	0.438	0.448	1.13	0.895	0.989	1.13	0.79	1.32	0.941	0.82	0.785	0.598
NCI-H1437	0.44	0.381	0.254	0.397	0.304	0.661	0.641	0.511	0.443	0.482	0.899	0.686	0.76	0.802	0.653	1.16	1.03	–	1.14	0.319
NCI-H1651	0.869	0.679	0.389	0.623	0.455	0.183	0.188	0.187	0.165	0.166	0.828	0.666	0.769	0.892	0.647	0.875	1.05	–	0.769	0.527
NCI-H1666	0.612	0.633	0.538	0.662	0.486	0.812	0.803	0.65	0.802	0.75	0.825	0.543	0.639	0.909	0.383	1.16	0.984	0.852	0.932	0.618
NCI-H1734	0.284	0.247	0.263	0.206	0.207	0.581	0.523	0.334	0.303	0.239	1.27	1.07	0.975	1.01	0.72	0.738	0.725	0.387	0.396	0.347
NCI-H1755	0.639	0.531	0.512	0.663	0.488	0.911	0.891	0.729	0.74	0.472	1.11	0.982	1.08	1.16	0.992	1.07	1.03	0.538	0.92	0.61
NCI-H1793	0.401	0.354	–	0.206	0.174	1.02	0.906	0.37	0.333	0.27	0.937	0.557	0.679	1.03	0.971	0.812	0.7	0.391	0.357	0.193

From the supplement of paper PMC10307832
